Several values for one entry are separate records, joined by “and”; a condition that tells them apart may be missing. Equal values may be shown once. Read-outs that look alike come from different tables or passages of the source.

Data set [1] concerns photosynthetic electron transport (PET) in spinach chloroplasts. The data set is described as follows: Inhibition of photosynthetic electron transport (PET) in spinach chloroplasts (DCPIP photoreduction). The class given is biochemical, Spinacia oleracea L. The conditions noted are these: chlorophyll 30 mg/L. How it is done:
Chloroplasts were prepared from spinach (Spinacia oleracea L.) according to Masarovicova and Kralova. The inhibition of photosynthetic electron transport (PET) in spinach chloroplasts was determined spectrophotometrically (Genesys 6, Thermo Scientific, USA), using an artificial electron acceptor 2,6-dichlorophenol-indophenol (DCIPP) according to Kralova et al., and the rate of photosynthetic electron transport was monitored as photoreduction of DCPIP. The measurements were carried out in phosphate buffer (0.02 M, pH 7.2) containing sucrose (0.4 M), MgCl2 (0.005 M) and NaCl (0.015 M). The chlorophyll content was 30 mg/L in these experiments, and the samples were irradiated (~100 W/m^2 with 10 cm distance) with a halogen lamp (250 W) using a 4-cm water filter to prevent warming of the samples (suspension temperature 22 °C). The studied compounds were dissolved in DMSO due to their limited water solubility. […] The inhibitory efficiency of the studied compounds was expressed by IC50 values, i.e., by molar concentration of the compounds causing a 50% decrease in the […] relative to the untreated control.

Data set [2] has the same test system. Further details: method as in Gonec et al. [11]. To be noted: compounds 1-7 published earlier, ref Gonec et al. [11], read-out: PET Inhibition IC50; cited from earlier work.
Data set [3] can be described thus: Aqueous solubility (qualitative). The class given is physicochemical. The conditions noted are these: compared with 2,5-, 2,6-, 3,4- and 3,5-disubstituted derivatives.
Data set [4] concerns chlorophyll a (Chla) in pigment-protein complexes in PS II. The data set is described as follows: Fluorescence of chlorophyll a in spinach chloroplasts. The class given is biochemical, Spinacia oleracea L. To be noted: with increasing concentration (c = 0, 56, 220, 431 μM); λex = 436 nm; chlorophyll 10 mg/L. How it is done: (§1) The fluorescence emission spectra of chlorophyll a (Chla) and aromatic amino acids in spinach chloroplasts were recorded on fluorescence spectrophotometer F-2000 (Hitachi, Tokyo, Japan) using excitation wavelength λex = 436 nm for monitoring the fluorescence of Chla and λex = 275 nm for monitoring the fluorescence of aromatic amino acids, excitation slit 20 nm and emission slit 10 nm. The samples were kept in the dark for 2 min prior to the measurement. The phosphate buffer used for dilution of the chloroplast suspension was the same as described above. Due to low aqueous solubility, the compounds were added to a chloroplast suspension in DMSO solution. The DMSO concentration in all samples was the same as in the control (10%). The chlorophyll concentration in chloroplast suspension was 10 mg/L.

In data set [5] the test system is aromatic amino acids (AAA) in photosynthetic proteins situated mainly in PS II. As to the kind of experiment: Fluorescence of aromatic amino acids in spinach chloroplasts. The class given is biochemical, Spinacia oleracea L. The conditions noted are these: with increasing concentration (c = 0-47.2 μM); λex = 275 nm; chlorophyll 10 mg/L. How it is done: as §1

A word on the IC50: it is the concentration that gives 50% inhibition. On to `O=C(Nc1cc(Cl)c(Cl)cc1Cl)c1ccc2ccccc2c1O` [Compound 14, 1-Hydroxy-N-(2,4,5-trichlorophenyl)naphthalene-2-carboxamide], for which the IC50 in data set [1] was determined as 153 µM.
Consider `O=C(Nc1cccc(Cl)c1)c1ccc2ccccc2c1O` [Compound 3], for which, in data set [2], the IC50 is 7.9 µM.
Compound `O=C(Nc1ccc(Cl)cc1Cl)c1ccc2ccccc2c1O` [Compound 9, N-(2,4-Dichlorophenyl)-1-hydroxynaphthalene-2-carboxamide] returned an IC50 in data set [1] of 531 µM. Further, in data set [3], the aqueous solubility result was “limited aqueous solubility”.
For `CN(C)C(=O)Nc1ccc(Cl)c(Cl)c1` [DCMU, 3-(3,4-dichlorophenyl)-1,1-dimethylurea, reference compound], the IC50 in data set [1] was ~1.9 µM and 1.9 µM.
Usually melting point stands for the temperature, or range, at which the solid turns liquid. As to `O=C(Nc1cc(Br)ccc1Br)c1ccc2ccccc2c1O` [Compound 18, N-(2,5-Dibromophenyl)-1-hydroxynaphthalene-2-carboxamide], the melting point fell in the range of 198 to 200 °C. The compound also returned a half-maximal inhibitory concentration (IC50) in data set [1] of 7.6 µM.
Regarding `O=C(Nc1ccccc1)c1ccc2ccccc2c1O` [Compound 1], in data set [2], the IC50 was 31.3 µM.
Take `O=C(Nc1ccc(Br)cc1Cl)c1ccc2ccccc2c1O` [Compound 22, N-(4-Bromo-2-chlorophenyl)-1-hydroxynaphthalene-2-carboxamide]: the melting point was 186 to 187 °C. For the same compound, in data set [1], the IC50 worked out at 171 µM. Further, in data set [3], the aqueous solubility result was “limited aqueous solubility”.
Turning to `O=C(Nc1ccccc1Br)c1ccc2ccccc2c1O` [Compound 5], the IC50 in data set [2] is 61.9 µM.
With `O=C(Nc1c(Cl)cccc1Cl)c1ccc2ccccc2c1O` [Compound 11, N-(2,6-Dichlorophenyl)-1-hydroxynaphthalene-2-carboxamide], the IC50 in data set [1] amounted to 100 µM.
`O=C(Nc1c(Br)cc(Br)cc1Br)c1ccc2ccccc2c1O` [Compound 20, 1-Hydroxy-N-(2,4,6-tribromophenyl)naphthalene-2-carboxamide] gave a melting point of 115 to 118 °C. In addition, in data set [1], 45 µM corresponded to half-maximal inhibition (IC50).
In the case of `O=C(Nc1ccc(Cl)cc1Br)c1ccc2ccccc2c1O` [Compound 21, N-(2-Bromo-4-chlorophenyl)-1-hydroxynaphthalene-2-carboxamide], the melting point was 182 to 184 °C. Moreover, in data set [1], the IC50 worked out at 278 µM. Further, in data set [3], the aqueous solubility entry is listed as “limited aqueous solubility”.
For `O=C(Nc1ccc(Br)cc1Br)c1ccc2ccccc2c1O` [Compound 17, N-(2,4-Dibromophenyl)-1-hydroxynaphthalene-2-carboxamide], in that order: 185 to 188 °C, 505 µM and “limited aqueous solubility”.
With `O=C(Nc1ccc(Cl)cc1)c1ccc2ccccc2c1O` [Compound 4], in data set [2], the IC50 was 10.8 µM.
`O=C(Nc1cc(Cl)c(Cl)c(Cl)c1)c1ccc2ccccc2c1O` [Compound 16, 1-Hydroxy-N-(3,4,5-trichlorophenyl)naphthalene-2-carboxamide] returned an IC50 in data set [1] of 8 µM.
The same measure, in the same setting: to `O=C(Nc1cc(Cl)cc(Cl)c1)c1ccc2ccccc2c1O` [Compound 13, N-(3,5-Dichlorophenyl)-1-hydroxynaphthalene-2-carboxamide] belongs 5.2 µM.
In turn, `O=C(Nc1ccc(Cl)c(Cl)c1)c1ccc2ccccc2c1O` [Compound 12, N-(3,4-Dichlorophenyl)-1-hydroxynaphthalene-2-carboxamide] returned a half-inhibitory concentration (IC50) in data set [1] of 13.3 µM.
On to `O=C(Nc1ccc(Br)c(Cl)c1)c1ccc2ccccc2c1O` [Compound 24, N-(4-Bromo-3-chlorophenyl)-1-hydroxynaphthalene-2-carboxamide], for which the melting point is 203 to 205 °C. For the same compound, it took 6.7 µM to reach half-maximal inhibition in data set [1] (IC50).
Take `O=C(Nc1c(Cl)cc(Cl)cc1Cl)c1ccc2ccccc2c1O` [Compound 15, 1-Hydroxy-N-(2,4,6-trichlorophenyl)naphthalene-2-carboxamide]: the IC50 in data set [1] was found to be 10.6 µM.
As for `O=C(Nc1ccccc1Cl)c1ccc2ccccc2c1O` [Compound 2], the IC50 in data set [2] is 29.4 µM.
Turning to `O=C(Nc1ccc(Br)cc1)c1ccc2ccccc2c1O` [Compound 7], the IC50 in data set [2] is 9.6 µM.
The compound `O=C(Nc1cccc(Cl)c1Cl)c1ccc2ccccc2c1O` [Compound 8, N-(2,3-Dichlorophenyl)-1-hydroxynaphthalene-2-carboxamide] came in with an IC50 in data set [1] of 235 µM. In addition, the aqueous solubility entry in data set [3] is “limited aqueous solubility”.
Regarding `O=C(Nc1cc(Cl)ccc1Cl)c1ccc2ccccc2c1O` [Compound 10, N-(2,5-Dichlorophenyl)-1-hydroxynaphthalene-2-carboxamide], half-maximal inhibition in data set [1] (IC50) was put at 59.6 µM.
The compound `O=C(Nc1cc(Br)ccc1Cl)c1ccc2ccccc2c1O` [Compound 23, N-(5-Bromo-2-chlorophenyl)-1-hydroxynaphthalene-2-carboxamide] yielded a melting point of 178 to 180 °C. The compound also returned an IC50 in data set [1] of 60.3 µM. Besides, the “intensity of Chla fluorescence emission band at 686 nm” value in data set [4] is “gradual decrease”. Also, the “AAA fluorescence at 334 nm” value in data set [5] is reported as “quenching of AAA fluorescence at 334 nm was observed”.
For the compound `O=C(Nc1c(Br)cccc1Br)c1ccc2ccccc2c1O` [Compound 19, N-(2,6-Dibromophenyl)-1-hydroxynaphthalene-2-carboxamide], the melting point lay in the range of 212 to 216 °C. Inhibition in data set [1] was half-maximal at 78 µM (IC50).
For the compound `O=C(Nc1cccc(Br)c1)c1ccc2ccccc2c1O` [Compound 6], the IC50 in data set [2] is 8.2 µM.

The record behind these values is paper PMC6151762, “Halogenated 1-Hydroxynaphthalene-2-Carboxanilides Affecting Photosynthetic Electron Transport in Photosystem II” (Molecules : A Journal of Synthetic Chemistry and Natural …, 2017).
